Test results as given in patent publication US7109193B2, “Tricyclic diazepines tocolytic oxytocin receptor antagonists” (Wyeth, priority 2001, dated 2006).

Molecular target: T1, human oxytocin receptor (Homo sapiens, UniProt P30559)
T1 construct: host or cells: CHO cells (pcDNA3.1 vector)
T1 sequence (P30559 1-389): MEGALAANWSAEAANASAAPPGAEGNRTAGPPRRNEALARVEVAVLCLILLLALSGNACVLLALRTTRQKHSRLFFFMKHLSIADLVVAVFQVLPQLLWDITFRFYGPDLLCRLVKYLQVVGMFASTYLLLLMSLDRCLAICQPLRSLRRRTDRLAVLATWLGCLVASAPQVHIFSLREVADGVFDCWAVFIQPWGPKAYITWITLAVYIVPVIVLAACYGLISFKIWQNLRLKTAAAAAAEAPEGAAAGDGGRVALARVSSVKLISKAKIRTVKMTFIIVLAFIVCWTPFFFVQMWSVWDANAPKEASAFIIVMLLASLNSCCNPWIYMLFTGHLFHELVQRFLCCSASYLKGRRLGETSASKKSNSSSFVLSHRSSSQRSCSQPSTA
Assay: Oxytocin binding in Chinese Hamster Ovary cell membranes expressing human oxytocin receptors
Conditions: 100 nM, CHO cell membranes, [3H]oxytocin, values without parentheses, read-out: OT % inhibition @ 100% nM

Row | inhibition at 0.1 µM [%] | SMILES
1 | 45 | COc1cccc(-c2ccc(C(=O)N3Cc4ccc(C(=O)n5ccnc5)n4Cc4ccccc43)cc2C)c1 [Example 289, 1H-Imidazol-1-yl-{10-[(3′-methoxy-2-methyl[1,1′-biphenyl]-4-yl)carbonyl]-10,11-dihydro-5H-pyrrolo[2,1-c][1,4]benzodiazepin-3-yl}methanone]
2 | 86 | Cc1ccccc1-c1ccc(C(=O)N2Cc3ccc(C(=O)N4CCN(C)CC4)n3Cc3ccccc32)cc1 [Example 52, {10-[(2′-Methyl[1,1′-biphenyl]-4-yl)carbonyl]-10,11-dihydro-5H-pyrrolo[2,1-c][1,4]benzodiazepin-3-yl}(4-methyl-1-piperazinyl)methanone]
3 | 62 | COc1cc(-c2ccccc2C)c(Cl)cc1C(=O)N1Cc2ccc(C(=O)NCCCN(C)C)n2Cc2ccccc21 [Example 78, 10-[(6-Chloro-3-methoxy-2′-methyl[1,1′-biphenyl]-4-yl)carbonyl]-N-[3-(dimethylamino)propyl]-10,11-dihydro-5H-pyrrolo[2,1-c][1,4]benzodiazepine-3-carboxamide]
4 | 32 | COc1cc(C(=O)N2Cc3ccc(C(=O)N4CCN(CCN5CCOCC5)CC4)n3Cc3ccccc32)ccc1-n1c(C)ccc1C [Example 317, {10-[4-(2,5-Dimethyl-1H-pyrrol-1-yl)-3-methoxybenzoyl]-10,11-dihydro-5H-pyrrolo[2,1-c][1,4]benzodiazepin-3-yl}{4-[2-(4-morpholinyl)ethyl]-1-piperazinyl}methanone]

Row | SMILES | inhibition at 0.1 µM [%]
5 | COc1ccccc1-c1ccc(C(=O)N2Cc3ccc(C(=O)N[C@H]4CN5CCC4CC5)n3Cc3ccccc32)cc1C [Example 298, N-[(3R)-1-Azabicyclo[2.2.2]oct-3-yl]-10-[(2′-methoxy-2-methyl[1,1′-biphenyl]-4-yl)carbonyl]-10,11-dihydro-5H-pyrrolo[2,1-c][1,4]benzodiazepine-3-carboxamide] | 94
